From patent US10028992B2, “Methods of treating muscular dystrophy” (BOARD OF REGENTS OF THE NEVADA SYSTEM OF HIGHER EDUCATION …, priority 2012, dated 2018)

Test system: α7 integrin promoter
Test: muscle cell-based assay: α7βgal+/− myoblasts/myotubes, LacZ reporter, β-galactosidase cleavage of FDG
Parameters: species or system mouse; Results in α7+/− β-galactosidase assay: scale not given here
Conditions: for Results in α7+/− β-galactosidase assay: Myoblasts; for AC50 / EC50: Mus musculus; for AC50: log of AC50, given with negative sign, unit of AC50 not given, read-out: Fit Log AC50 (converted); for Fit Curve Class: key not given; for Results in a α7+/− β-galactosidase assay, Myotubes, 0.5 uM: compound at 0.5 uM; for Results in a α7+/− β-galactosidase assay, Myotubes, 1 uM: compound at 1 uM; for Results in a α7+/− β-galactosidase assay, Myotubes, 5 uM: compound at 5 uM; for Results in a α7+/− β-galactosidase assay, Myotubes, 10 uM: compound at 10 uM; for Results in a α7+/− β-galactosidase assay, Myotubes, 20 uM: compound at 20 uM; for Results in a α7+/− β-galactosidase assay, Myotubes, 40 uM: compound at 40 uM; for EC50: given as log AC50 (negative values), read-out: Fit LogAC50 (converted)
Experimental: An α7 integrin null mouse was produced in which exon 1 of the gene encoding the α7 integrin was replaced by the LacZ reporter. In these mice, all the transcriptional regulatory elements of the α7 integrin promoter were retained, allowing β-galactosidase to report expression of 7 integrin. A primary myoblast cell line (designated α7βgal^+/−) isolated from 10 day old α7^+/− pups were analyzed for the ability of β-galactosidase to report α7 integrin expression. α7βgal^+/− myoblasts were differentiated and subjected to X-gal staining and western analysis (FIGS. 1A and 1B).
The activity of the α7 integrin promoter was measured by β-galactosidase cleavage of the non-fluorescent compound fluorescein di-β-D-galactopyranoside (FDG) to fluorescein. This assay was used to screen compound libraries to identify molecules that up-regulate α7 integrin expression in muscle.
Also evaluated was the effect of various isoforms of laminin and the ligand for α7β1 integrin on integrin expression. Positive hits were subjected to dose-response analysis, western analysis and a myostatin counterscreen (a negative regulator of muscle growth).

[1] = Table 12, fitted activity at zero concentration
[2] = Table 12 Compound data, concentration-response curve fit
[3] = curve fit, activity at zero concentration

## CCC(=O)c1ccc(OCC(O)CN2CCOC(C)C2)cc1.O=C(O)C(=O)O (centres unmarked) [drawing 611]
0.5 uM
  Results in α7+/− β-galactosidase assay: 0.222
1 uM
  Results in α7+/− β-galactosidase assay: 0.08832
5 uM
  Results in α7+/− β-galactosidase assay: −0.02345
10 uM
  Results in α7+/− β-galactosidase assay: −0.1332
20 uM
  Results in α7+/− β-galactosidase assay: 0.0354
40 uM
  Results in α7+/− β-galactosidase assay: 0.02206

## CCCCS(=O)(=O)N1CCCC(C(=O)NCCc2ccccc2)C1 (centres unmarked) [Compound 111]
Table 12
  AC50: 7.08 µM
  Fit Curve Class: 2.1
Table 12, curve fit
  Fit HillSlope: 1.21
[1]
  Fit Zero Activity [%]: 2.2101%
[2]
  Score: 43

## CNC(=O)CSc1nnc(-c2ccc3c(c2)OCO3)n1C [drawing 328]
  Results in a α7+/− β-galactosidase assay, Myotubes, 0.5 uM: 0.08818
  Results in a α7+/− β-galactosidase assay, Myotubes, 1 uM: −0.1177
  Results in a α7+/− β-galactosidase assay, Myotubes, 5 uM: 0.04868
  Results in a α7+/− β-galactosidase assay, Myotubes, 10 uM: 0.07527
  Results in a α7+/− β-galactosidase assay, Myotubes, 20 uM: −0.1599
  Results in a α7+/− β-galactosidase assay, Myotubes, 40 uM: −0.2763

## N#Cc1ccc(Sc2nc3ccccc3[nH]2)cc1C#N [drawing 376]
  Results in a α7+/− β-galactosidase assay, Myotubes, 0.5 uM: 0.09647
  Results in a α7+/− β-galactosidase assay, Myotubes, 1 uM: 0.1219
  Results in a α7+/− β-galactosidase assay, Myotubes, 5 uM: 0.01154
  Results in a α7+/− β-galactosidase assay, Myotubes, 10 uM: −0.06084
  Results in a α7+/− β-galactosidase assay, Myotubes, 20 uM: −0.00606
  Results in a α7+/− β-galactosidase assay, Myotubes, 40 uM: −0.1145

## COc1ccc(CCNC(=O)Cn2nnc(C(=O)Nc3ccc(Br)cc3)c2N)cc1OC [Compound 148]
  EC50: 11.2 µM
Table 12 compound data
  Score: 42
Curve class number
  Fit Curve Class: 2.1
Curve fit
  Fit HillSlope: 2.3531
[3]
  Fit Zero Activity [%]: −28.7719%

## CCC(C)n1nc(O)cc1N (centres unmarked) [drawing 641]
0.5 uM
  Results in α7+/− β-galactosidase assay: 0.2618
1 uM
  Results in α7+/− β-galactosidase assay: 0.0875
5 uM
  Results in α7+/− β-galactosidase assay: −0.07378
10 uM
  Results in α7+/− β-galactosidase assay: −0.09102
20 uM
  Results in α7+/− β-galactosidase assay: 0.1389
40 uM
  Results in α7+/− β-galactosidase assay: 0.06802

## O=C(CNC(=O)c1cccc(F)c1)N/N=C/c1cc(Br)ccc1OCc1ccccc1 [Compound 216]
  EC50: 10 µM
Table 12 compound data
  Score: 42
Curve class number
  Fit Curve Class: 2.2
Curve fit
  Fit HillSlope: 0.8
[3]
  Fit Zero Activity [%]: 3.67%

## Cc1noc(C)c1COc1ccc(C(=O)NCCc2ccccn2)cc1 [drawing 594]
0.5 uM
  Results in α7+/− β-galactosidase assay: −0.1523
1 uM
  Results in α7+/− β-galactosidase assay: −0.1552
5 uM
  Results in α7+/− β-galactosidase assay: −0.01736
10 uM
  Results in α7+/− β-galactosidase assay: 0.1691
20 uM
  Results in α7+/− β-galactosidase assay: −0.127
40 uM
  Results in α7+/− β-galactosidase assay: −0.3226

## COCCn1c(=N)c(S(=O)(=O)c2ccc(Br)cc2)cc2c(=O)n3ccccc3nc21 [Compound 96]
Table 12
  AC50: 4.47 µM
  Fit Curve Class: 2.2
Table 12, curve fit
  Fit HillSlope: 1.9887
[1]
  Fit Zero Activity [%]: −8.0822%
[2]
  Score: 43

## Cc1ccsc1-c1nnc(S)n1C1CCCCC1 [drawing 413]
  Results in a α7+/− β-galactosidase assay, Myotubes, 0.5 uM: 0.2221
  Results in a α7+/− β-galactosidase assay, Myotubes, 1 uM: 0.09759
  Results in a α7+/− β-galactosidase assay, Myotubes, 5 uM: 0.1567
  Results in a α7+/− β-galactosidase assay, Myotubes, 10 uM: −0.1231
  Results in a α7+/− β-galactosidase assay, Myotubes, 20 uM: 0.1272
  Results in a α7+/− β-galactosidase assay, Myotubes, 40 uM: −0.178

## CCOc1cc2c3c(c1)C(C)=CC(C)(C)N3C(=O)C2=O [drawing 442]
  Results in a α7+/− β-galactosidase assay, Myotubes, 0.5 uM: 0.1339
  Results in a α7+/− β-galactosidase assay, Myotubes, 1 uM: 0.05498
  Results in a α7+/− β-galactosidase assay, Myotubes, 5 uM: −0.2641
  Results in a α7+/− β-galactosidase assay, Myotubes, 10 uM: −0.2882
  Results in a α7+/− β-galactosidase assay, Myotubes, 20 uM: −0.3067
  Results in a α7+/− β-galactosidase assay, Myotubes, 40 uM: −0.3705

## COc1nccc(NCc2ccccc2)c1C#N [Compound 169]
  EC50: 10 µM
Table 12 compound data
  Score: 42
Curve class number
  Fit Curve Class: 2.1
Curve fit
  Fit HillSlope: 4.4495
[3]
  Fit Zero Activity [%]: −19.7104%

## CC(=O)Nc1ccc(-n2c(C)nc(=O)c(-c3ccccc3)c2C)cc1 [drawing 668]
0.5 uM
  Results in α7+/− β-galactosidase assay: 0.06264
1 uM
  Results in α7+/− β-galactosidase assay: −0.004
5 uM
  Results in α7+/− β-galactosidase assay: −0.1843
10 uM
  Results in α7+/− β-galactosidase assay: −0.1948
20 uM
  Results in α7+/− β-galactosidase assay: −0.4829
40 uM
  Results in α7+/− β-galactosidase assay: −0.7384

## CC(=O)c1ccc(N(C(=O)CNC(=O)c2ccco2)C(C(=O)NC2CCCC2)c2ccc(C)o2)cc1 (centres unmarked) [Compound 146]
  EC50: 10 µM
Table 12 compound data
  Score: 42
Curve class number
  Fit Curve Class: 2.1
Curve fit
  Fit HillSlope: 4.9549
